Data on 42 compounds can be found in ChEMBL document CHEMBL1136638, “N-Benzoyl amino acids as LFA-1/ICAM inhibitors 1: amino acid structure-activity relationship” (Bioorg Med Chem Lett, 2003).

For the assay, the target named is Intercellular adhesion molecule (ICAM-1), Integrin alpha-L/beta-2 (Homo sapiens, UniProt P05107+P05362+P20701). The experiment in a line: Concentration required to inhibit binding of ICAM-1 to LFA-1 (Leukocyte function-associated antigen-1), evaluated ELISA. Type of assay: protein-complex assay. A general note: An ELISA detects its analyte on a solid surface through an enzyme-linked reagent.
Chain of Intercellular adhesion molecule (ICAM-1), Integrin alpha-L/beta-2 (P20701 whole entry): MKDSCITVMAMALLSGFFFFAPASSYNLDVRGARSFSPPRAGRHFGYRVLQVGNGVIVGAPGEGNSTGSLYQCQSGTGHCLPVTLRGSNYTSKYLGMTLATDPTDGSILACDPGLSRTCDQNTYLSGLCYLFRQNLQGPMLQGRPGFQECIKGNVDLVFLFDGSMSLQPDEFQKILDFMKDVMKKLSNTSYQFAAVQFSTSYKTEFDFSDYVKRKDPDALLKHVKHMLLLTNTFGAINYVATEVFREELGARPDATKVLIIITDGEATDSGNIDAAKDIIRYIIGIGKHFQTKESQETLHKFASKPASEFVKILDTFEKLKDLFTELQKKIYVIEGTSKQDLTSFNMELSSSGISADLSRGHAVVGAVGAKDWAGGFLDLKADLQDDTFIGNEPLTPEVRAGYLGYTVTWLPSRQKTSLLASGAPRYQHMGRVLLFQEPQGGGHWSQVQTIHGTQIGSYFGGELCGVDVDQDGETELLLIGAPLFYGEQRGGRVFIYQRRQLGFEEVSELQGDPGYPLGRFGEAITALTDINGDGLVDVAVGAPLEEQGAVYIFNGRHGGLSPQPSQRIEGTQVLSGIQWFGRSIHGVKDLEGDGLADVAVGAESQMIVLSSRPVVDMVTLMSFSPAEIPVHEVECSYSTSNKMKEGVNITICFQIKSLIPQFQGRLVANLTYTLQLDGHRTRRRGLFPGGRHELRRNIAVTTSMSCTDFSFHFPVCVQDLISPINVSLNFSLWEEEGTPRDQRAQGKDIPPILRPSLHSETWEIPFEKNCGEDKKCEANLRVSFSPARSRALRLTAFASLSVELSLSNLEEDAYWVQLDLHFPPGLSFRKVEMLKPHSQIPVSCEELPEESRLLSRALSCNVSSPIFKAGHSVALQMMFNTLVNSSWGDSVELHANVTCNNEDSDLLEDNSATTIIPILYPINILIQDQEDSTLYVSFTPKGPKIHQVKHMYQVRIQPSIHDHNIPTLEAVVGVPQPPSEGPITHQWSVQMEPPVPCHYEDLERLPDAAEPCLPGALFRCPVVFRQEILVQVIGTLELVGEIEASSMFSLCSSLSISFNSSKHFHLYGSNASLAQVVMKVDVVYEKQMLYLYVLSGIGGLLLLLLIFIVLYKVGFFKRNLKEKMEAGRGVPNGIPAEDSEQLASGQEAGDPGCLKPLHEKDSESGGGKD
Chain of Intercellular adhesion molecule (ICAM-1), Integrin alpha-L/beta-2 (P05362 whole entry): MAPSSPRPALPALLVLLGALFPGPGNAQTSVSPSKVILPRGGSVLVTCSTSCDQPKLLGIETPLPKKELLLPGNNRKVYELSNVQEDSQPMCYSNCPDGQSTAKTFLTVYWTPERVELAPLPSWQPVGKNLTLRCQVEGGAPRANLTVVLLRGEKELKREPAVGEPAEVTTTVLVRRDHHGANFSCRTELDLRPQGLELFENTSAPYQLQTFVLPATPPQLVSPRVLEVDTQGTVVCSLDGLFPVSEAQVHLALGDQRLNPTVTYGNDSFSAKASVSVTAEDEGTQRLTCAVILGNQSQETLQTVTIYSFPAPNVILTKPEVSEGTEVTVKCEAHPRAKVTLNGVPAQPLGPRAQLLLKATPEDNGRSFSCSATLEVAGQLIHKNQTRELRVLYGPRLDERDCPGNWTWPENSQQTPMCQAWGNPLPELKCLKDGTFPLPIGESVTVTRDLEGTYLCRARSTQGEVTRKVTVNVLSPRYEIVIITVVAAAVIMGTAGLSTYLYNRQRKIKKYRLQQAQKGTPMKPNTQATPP
Chain of Intercellular adhesion molecule (ICAM-1), Integrin alpha-L/beta-2 (P05107 whole entry): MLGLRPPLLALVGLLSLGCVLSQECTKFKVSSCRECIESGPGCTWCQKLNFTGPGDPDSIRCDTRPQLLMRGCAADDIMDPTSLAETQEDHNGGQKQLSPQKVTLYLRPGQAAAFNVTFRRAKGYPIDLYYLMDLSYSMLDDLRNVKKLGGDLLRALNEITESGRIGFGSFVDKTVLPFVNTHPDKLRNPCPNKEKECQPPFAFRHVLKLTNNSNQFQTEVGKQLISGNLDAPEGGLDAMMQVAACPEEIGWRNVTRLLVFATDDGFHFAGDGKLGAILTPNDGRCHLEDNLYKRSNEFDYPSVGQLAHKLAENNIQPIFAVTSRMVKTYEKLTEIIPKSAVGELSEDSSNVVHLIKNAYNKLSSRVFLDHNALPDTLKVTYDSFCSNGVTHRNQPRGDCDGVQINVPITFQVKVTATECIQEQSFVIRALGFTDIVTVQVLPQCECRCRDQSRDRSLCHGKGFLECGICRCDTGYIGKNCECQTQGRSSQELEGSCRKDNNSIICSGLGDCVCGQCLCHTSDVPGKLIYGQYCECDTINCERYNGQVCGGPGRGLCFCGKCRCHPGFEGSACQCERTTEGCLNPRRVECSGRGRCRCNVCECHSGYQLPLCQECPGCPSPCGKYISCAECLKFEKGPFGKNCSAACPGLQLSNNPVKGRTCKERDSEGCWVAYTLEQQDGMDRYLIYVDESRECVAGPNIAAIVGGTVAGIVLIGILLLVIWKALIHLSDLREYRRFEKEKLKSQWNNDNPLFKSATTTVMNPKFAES
Broadly, the IC50 is the midpoint of a concentration-inhibition curve. Turning to `C[C@@H](O)[C@H](NC(=O)c1ccccc1Br)C(=O)O`, the 50% inhibitory concentration (IC50) came to 3.84 µM. This lies in the single-digit micromolar range.
`CC(C)C[C@H](NC(=O)c1ccccc1Br)C(=O)O` displayed a half-inhibitory concentration (IC50) of 54.3 µM.
The value for `COc1ccc2[nH]cc(C[C@H](NC(=O)c3ccccc3Br)C(=O)O)c2c1` was 2.77 µM; that for `O=C(N[C@@H](CCc1ccccc1)C(=O)O)c1ccccc1Br` was 5.09 µM.
Under `O=C(N[C@@H](Cc1c[nH]c2ccc(F)cc12)C(=O)O)c1ccccc1Br` stands 10.8 µM; under `O=C(N[C@@H](Cc1ccc(-c2ccccc2)cc1)C(=O)O)c1ccccc1Br`, 50.5 µM.
Compound `O=C(N[C@@H](Cc1c[nH]c2ccc(Br)cc12)C(=O)O)c1ccccc1Br` had an IC50 of 28.4 µM.
Under `O=C(N[C@H](Cc1cccc2ccccc12)C(=O)O)c1ccccc1Br` stands over 200 µM; under `CSCC[C@H](NC(=O)c1ccccc1Br)C(=O)O`, 7.46 µM.
The value for `C[C@H](NC(=O)c1ccccc1Br)C(=O)O` was 6.64 µM; that for `O=C(N[C@@H](Cc1c[nH]c2ccccc12)C(=O)O)c1ccccc1Br` was 1.7 µM.
In turn, `O=C(O)CC[C@H](NC(=O)c1ccccc1Br)C(=O)O` yielded a half-maximal inhibitory concentration (IC50) of 30.1 µM.
The value for `NC(=O)C[C@H](NC(=O)c1ccccc1Br)C(=O)O` was 1.08 µM; that for `O=C(N[C@@H](Cc1ccc2ccccc2c1)C(=O)O)c1ccccc1Br` was 24.4 µM; that for `O=C(N[C@H](Cc1ccc2ccccc2c1)C(=O)O)c1ccccc1Br` was 243 µM.
The value for `O=C(N[C@H](Cc1ccccc1)C(=O)O)c1ccccc1Br` was 280 µM; that for `NC(=O)CC[C@H](NC(=O)c1ccccc1Br)C(=O)O` was 1.77 µM.
Under `NCCCC[C@H](NC(=O)c1ccccc1Br)C(=O)O` stands 1.21 µM.
Compound `O=C(N[C@@H](Cc1cnc[nH]1)C(=O)O)c1ccccc1Br` displayed an IC50 of 0.75 µM.
The compound `N=C(N)NCCC[C@H](NC(=O)c1ccccc1Br)C(=O)O` came in with an IC50 of 2.71 µM.
The compound `O=C(N[C@@H](Cc1ccccc1)C(=O)O)c1ccccc1Br` showed a half-maximal inhibitory concentration (IC50) of 4.89 µM.
Turning to `O=C(N[C@H](CO)C(=O)O)c1ccccc1Br`, the half-maximal inhibitory concentration (IC50) stood at 72.6 µM.
The compound `O=C(N[C@@H](Cc1c[nH]c2ccccc12)C(=O)NO)c1ccccc1Br` returned an IC50 of 140 µM.
As for `O=C(N[C@@H](Cc1c[nH]c2ncccc12)C(=O)O)c1ccccc1Br`, the IC50 came out at 63.8 µM.
Under `NC(=O)[C@H](Cc1c[nH]c2ccccc12)NC(=O)c1ccccc1Br` stands over 1000 µM; under `O=C(N[C@@H](CS)C(=O)O)c1ccccc1Br`, 4.26 µM.
Under `O=C(N[C@@H](Cc1c[nH]c2cc(F)ccc12)C(=O)O)c1ccccc1Br` stands 7.64 µM; under `O=C(N[C@@H](Cc1ccc(O)cc1)C(=O)O)c1ccccc1Br`, 1.09 µM; under `O=C(O)[C@@H]1CCCN1C(=O)c1ccccc1Br`, over 1000 µM.
Under `CC[C@H](C)[C@H](NC(=O)c1ccccc1Br)C(=O)O` stands 106 µM.
Compound `COC(=O)[C@H](Cc1c[nH]c2ccccc12)NC(=O)c1ccccc1Br` displayed a concentration for half-maximal inhibition (IC50) of over 1000 µM.
`N#Cc1ccc(C[C@H](NC(=O)c2ccccc2Br)C(=O)O)cc1` displayed an IC50 of 36.8 µM. This lies in the double-digit micromolar range.
The value for `O=C(O)C[C@H](NC(=O)c1ccccc1Br)C(=O)O` was over 200 µM; that for `CC(C)[C@H](NC(=O)c1ccccc1Br)C(=O)O` was 11.3 µM; that for `C[C@@H](NC(=O)c1ccccc1Br)C(=O)O` was 57.5 µM.
In turn, `O=C(O)CNC(=O)c1ccccc1Br` yielded an IC50 of 314 µM.
On to `O=C(NCCc1c[nH]c2ccccc12)c1ccccc1Br`, for which the IC50 was over 1000 µM.
On to `O=C(N[C@@H](Cc1cccs1)C(=O)O)c1ccccc1Br`, for which the concentration for half-maximal inhibition (IC50) was found to be 5.5 µM.
Consider `O=C(N[C@@H](CO)C(=O)O)c1ccccc1Br`, for which the half-maximal inhibitory concentration (IC50) was found to be 6.15 µM.
`O=C(N[C@@H](Cc1cccc2ccccc12)C(=O)O)c1ccccc1Br` showed an IC50 of 15.9 µM.
The value for `O=C(N[C@H](Cc1c[nH]c2ccccc12)C(=O)O)c1ccccc1Br` was 76.6 µM.
The value for `O=C(N[C@@H](Cc1c[nH]c2ccc(O)cc12)C(=O)O)c1ccccc1Br` was 24.2 µM.
